Test results reported in article PMC3961306, “Comparison of the Cancer Gene Targeting and Biochemical Selectivities of All Targeted Kinase Inhibitors Approved for Clinical Use” (PLoS ONE, 2014).

Key:
Test in all cases: Kinase profiling in a biochemical assay panel (mobility shift assays and ELISA), %-inhibition at 1 μM; selectivity entropy
[1] = target: panel of more than 300 wild-type and mutant kinases (313 kinase panel) (Homo sapiens, UniProt Q02763)
[2] = target: T1, panel of more than 300 wild-type and mutant kinases (313 kinase panel) (Homo sapiens, UniProt Q08881)
T1 sequence (Q08881 1-620): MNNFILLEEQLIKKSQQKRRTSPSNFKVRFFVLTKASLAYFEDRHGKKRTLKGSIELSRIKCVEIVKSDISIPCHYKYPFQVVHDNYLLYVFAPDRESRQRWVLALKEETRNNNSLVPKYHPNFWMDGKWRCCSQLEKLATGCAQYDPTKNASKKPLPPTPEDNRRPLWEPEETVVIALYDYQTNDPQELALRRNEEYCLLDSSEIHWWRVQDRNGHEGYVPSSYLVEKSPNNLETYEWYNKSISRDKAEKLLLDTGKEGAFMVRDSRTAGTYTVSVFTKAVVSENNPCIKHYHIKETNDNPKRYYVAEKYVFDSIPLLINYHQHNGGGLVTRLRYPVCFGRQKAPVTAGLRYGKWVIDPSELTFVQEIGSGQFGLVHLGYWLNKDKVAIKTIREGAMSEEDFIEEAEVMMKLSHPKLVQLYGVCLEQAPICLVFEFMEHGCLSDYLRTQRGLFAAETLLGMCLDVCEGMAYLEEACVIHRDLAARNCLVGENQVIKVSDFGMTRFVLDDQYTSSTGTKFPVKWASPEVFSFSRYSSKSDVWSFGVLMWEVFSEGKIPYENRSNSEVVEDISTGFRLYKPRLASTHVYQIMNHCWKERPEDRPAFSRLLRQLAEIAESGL

[3] = target: panel of more than 300 wild-type and mutant kinases (313 kinase panel) (Homo sapiens, UniProt Q7KZI7)
[4] = target: T2, panel of more than 300 wild-type and mutant kinases (313 kinase panel) (Homo sapiens, UniProt Q9NWZ3)
T2 sequence (Q9NWZ3 1-460): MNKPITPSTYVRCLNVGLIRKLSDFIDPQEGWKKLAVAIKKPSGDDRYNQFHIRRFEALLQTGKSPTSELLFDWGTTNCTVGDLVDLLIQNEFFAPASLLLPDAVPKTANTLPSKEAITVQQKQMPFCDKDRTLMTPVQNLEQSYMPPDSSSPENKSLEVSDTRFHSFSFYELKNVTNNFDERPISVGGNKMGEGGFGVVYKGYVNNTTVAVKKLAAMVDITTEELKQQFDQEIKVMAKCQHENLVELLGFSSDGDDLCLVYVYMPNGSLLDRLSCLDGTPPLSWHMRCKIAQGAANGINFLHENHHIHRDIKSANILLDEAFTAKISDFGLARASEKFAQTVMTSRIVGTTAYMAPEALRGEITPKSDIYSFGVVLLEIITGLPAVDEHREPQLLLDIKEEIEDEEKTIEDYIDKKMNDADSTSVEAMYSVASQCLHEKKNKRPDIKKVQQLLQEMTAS

[5] = target: T3, panel of more than 300 wild-type and mutant kinases (313 kinase panel) (Homo sapiens, UniProt Q9Y2U5)
T3 sequence (Q9Y2U5 1-619): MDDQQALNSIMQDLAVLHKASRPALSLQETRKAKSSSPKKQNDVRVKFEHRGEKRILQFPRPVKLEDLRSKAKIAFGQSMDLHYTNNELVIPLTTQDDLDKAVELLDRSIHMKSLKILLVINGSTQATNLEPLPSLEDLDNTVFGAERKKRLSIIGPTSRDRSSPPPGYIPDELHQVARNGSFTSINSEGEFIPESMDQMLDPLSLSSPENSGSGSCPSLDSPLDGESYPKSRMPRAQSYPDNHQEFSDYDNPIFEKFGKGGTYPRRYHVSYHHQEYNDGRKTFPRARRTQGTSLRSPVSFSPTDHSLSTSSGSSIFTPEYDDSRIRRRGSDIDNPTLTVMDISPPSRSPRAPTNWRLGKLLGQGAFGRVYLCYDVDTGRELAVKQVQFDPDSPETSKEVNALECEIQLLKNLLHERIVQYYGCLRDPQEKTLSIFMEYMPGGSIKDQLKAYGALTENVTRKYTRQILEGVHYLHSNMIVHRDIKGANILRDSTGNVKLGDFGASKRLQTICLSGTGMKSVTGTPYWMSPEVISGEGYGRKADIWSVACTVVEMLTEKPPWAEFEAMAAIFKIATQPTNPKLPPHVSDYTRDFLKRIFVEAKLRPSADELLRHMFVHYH

[6] = target: panel of more than 300 wild-type and mutant kinases (313 kinase panel) (Homo sapiens, UniProt O96013)
[7] = kinase MAP3K2, compound at 1 μM

Sequence of panel of more than 300 wild-type and mutant kinases (313 kinase panel) (Homo sapiens, UniProt Q02763) (Q02763 23-1124, change not shown): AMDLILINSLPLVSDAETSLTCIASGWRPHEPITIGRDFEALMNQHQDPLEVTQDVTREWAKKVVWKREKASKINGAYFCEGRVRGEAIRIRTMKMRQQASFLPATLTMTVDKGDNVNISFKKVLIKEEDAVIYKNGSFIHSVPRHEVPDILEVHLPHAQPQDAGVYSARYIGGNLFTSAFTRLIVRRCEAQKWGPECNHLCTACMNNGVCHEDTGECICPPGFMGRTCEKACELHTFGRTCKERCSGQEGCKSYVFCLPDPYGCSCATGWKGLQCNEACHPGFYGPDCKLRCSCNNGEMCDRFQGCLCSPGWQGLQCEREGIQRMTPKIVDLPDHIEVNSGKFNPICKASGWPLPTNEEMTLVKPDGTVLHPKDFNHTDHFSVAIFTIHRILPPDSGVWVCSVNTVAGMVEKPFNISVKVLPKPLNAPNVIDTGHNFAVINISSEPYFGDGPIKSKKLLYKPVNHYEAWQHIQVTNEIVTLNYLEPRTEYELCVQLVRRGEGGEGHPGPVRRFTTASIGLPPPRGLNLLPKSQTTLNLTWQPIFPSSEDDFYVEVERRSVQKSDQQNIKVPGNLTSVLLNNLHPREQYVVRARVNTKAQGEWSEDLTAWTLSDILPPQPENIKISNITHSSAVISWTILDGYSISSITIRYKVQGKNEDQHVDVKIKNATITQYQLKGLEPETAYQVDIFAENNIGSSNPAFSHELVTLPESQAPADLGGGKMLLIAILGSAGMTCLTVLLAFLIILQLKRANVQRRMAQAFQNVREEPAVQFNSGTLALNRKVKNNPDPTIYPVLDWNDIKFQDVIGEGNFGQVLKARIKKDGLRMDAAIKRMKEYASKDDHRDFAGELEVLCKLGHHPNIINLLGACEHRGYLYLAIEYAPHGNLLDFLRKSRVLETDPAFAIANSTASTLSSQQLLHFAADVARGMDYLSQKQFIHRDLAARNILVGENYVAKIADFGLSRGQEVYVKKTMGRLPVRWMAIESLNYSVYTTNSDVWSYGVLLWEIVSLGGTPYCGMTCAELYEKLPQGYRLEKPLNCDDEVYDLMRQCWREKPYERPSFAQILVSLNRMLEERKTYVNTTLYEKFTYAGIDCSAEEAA

Row | SMILES | %-inhibition of TIE2 ([1]; kinase TIE2, 1 μM) [%] | %-inhibition of ITK ([2]; kinase ITK, compound at 1 μM) [%] | %-inhibition of MARK2 ([3]; 1 µM) [%] | %-inhibition of IRAK4 ([4]; kinase IRAK4, compound at 1 μM) [%] | %-inhibition of MAP3K2 ([5]; 1 µM) [%] | %-inhibition of PAK4 ([6]; kinase PAK4, 1 μM) [%] | %-inhibition of MARK2 ([3]; kinase MARK2, compound at 1 μM) [%] | %-inhibition of MAP3K2 [5, 7] [%] | %-inhibition of PAK4 ([6]; 1 µM) [%] | %-inhibition of TIE2 ([1]; 1 µM) [%] | %-inhibition of ITK ([2]; 1 µM) [%] | %-inhibition of IRAK4 ([4]; 1 µM) [%]
1 | COc1cc(Nc2c(C#N)cnc3cc(OCCCN4CCN(C)CC4)c(OC)cc23)c(Cl)cc1Cl [bosutinib] | 22 | 13 | 58 | 27 | 93 | – | – | – | – | – | – | –
2 | COc1cc2nccc(Oc3ccc(NC(=O)C4(C(=O)Nc5ccc(F)cc5)CC4)cc3)c2cc1OC [cabozantinib] | 90 | 16 | – | -4 | – | -13 | -4 | 9 | – | – | – | –
3 | C[C@@H](Oc1cc(-c2cnn(C3CCNCC3)c2)cnc1N)c1c(Cl)ccc(F)c1Cl [crizotinib] | – | 63 | – | 8 | – | -5.56 | 26 | – | – | – | – | –
4 | CC(C)(C)c1nc(-c2cccc(NS(=O)(=O)c3c(F)cccc3F)c2F)c(-c2ccnc(N)n2)s1 [dabrafenib] | 81 | 49 | – | – | – | 11 | 2.85 | 71 | – | – | – | –
5 | C#Cc1cccc(Nc2ncnc3cc(OCCOC)c(OCCOC)cc23)c1 [erlotinib] | – | – | 7 | – | 14 | – | – | – | -4 | 9 | 6.51 | 3
6 | CO[C@H]1C[C@@H]2CC[C@@H](C)[C@@](O)(O2)C(=O)C(=O)N2CCCC[C@H]2C(=O)O[C@H]([C@H](C)C[C@@H]2CC[C@@H](OCCO)[C@H](OC)C2)CC(=O)[C@H](C)/C=C(\C)[C@@H](O)[C@@H](OC)C(=O)[C@H](C)C[C@H](C)/C=C/C=C/C=C/1C [everolimus] | -3.66 | -3.61 | – | -6 | – | -4 | -6 | 7.56 | – | – | – | –
7 | O=S(=O)(c1cccc2cnccc12)N1CCCNCC1 [fasudil] | -10 | -9 | – | -4.68 | – | – | 3.21 | -15 | – | – | – | –
8 | CS(=O)(=O)CCNCc1ccc(-c2ccc3ncnc(Nc4ccc(OCc5cccc(F)c5)c(Cl)c4)c3c2)o1 [lapatinib] | 2.14 | -1.89 | – | -2 | – | – | 10 | 5.6 | – | – | – | –
9 | Cc1cn(-c2cc(NC(=O)c3ccc(C)c(Nc4nccc(-c5cccnc5)n4)c3)cc(C(F)(F)F)c2)cn1 [nilotinib] | 41 | -0.451 | – | -29 | – | – | 0.732 | -26 | -21 | – | – | –
10 | Cc1ccc(Nc2nccc(N(C)c3ccc4c(C)n(C)nc4c3)n2)cc1S(N)(=O)=O [pazopanib] | 26 | 28 | – | -0.622 | – | 1.68 | 8 | 46 | – | – | – | –
11 | Cc1ccc(C(=O)Nc2ccc(CN3CCN(C)CC3)c(C(F)(F)F)c2)cc1C#Cc1cnc2cccnn12 [ponatinib] | 101 | 86 | – | 29 | – | – | – | 79 | – | – | – | –
12 | CNC(=O)c1cc(Oc2ccc(NC(=O)Nc3ccc(Cl)c(C(F)(F)F)c3)c(F)c2)ccn1 [regorafenib] | 47 | 2.43 | – | 1.07 | – | -15 | 2.17 | 19 | – | – | – | –
13 | N#CC[C@H](C1CCCC1)n1cc(-c2ncnc3[nH]ccc23)cn1 [ruxolitinib] | 3 | 30 | – | – | 75 | 0.371 | – | – | – | – | – | -3.69
14 | CCN(CC)CCNC(=O)c1c(C)[nH]c(/C=C2\C(=O)Nc3ccc(F)cc32)c1C [sunitinib] | – | – | – | 48 | – | 6.58 | – | – | – | – | – | –
15 | CO[C@H]1C[C@@H]2CC[C@@H](C)[C@@](O)(O2)C(=O)C(=O)N2CCCC[C@H]2C(=O)O[C@H]([C@H](C)C[C@@H]2CC[C@@H](OC(=O)C(C)(CO)CO)[C@H](OC)C2)CC(=O)[C@H](C)/C=C(\C)[C@@H](O)[C@@H](OC)C(=O)[C@H](C)C[C@H](C)/C=C/C=C/C=C/1C [temsirolimus] | -8 | -1.7 | – | -5.36 | – | -19 | -6 | 5.58 | – | – | – | –
16 | CC(=O)Nc1cccc(-n2c(=O)n(C3CC3)c(=O)c3c(Nc4ccc(I)cc4F)n(C)c(=O)c(C)c32)c1 [trametinib] | -7 | -7.56 | – | -5 | – | -0.675 | -6 | 0.801 | – | – | – | –
17 | COc1cc2c(Nc3ccc(Br)cc3F)ncnc2cc1OCC1CCN(C)CC1 [vandetanib] | 85 | 20 | – | – | – | -11 | -9 | 14 | – | – | – | –
